Measured values as given in patent US20100029654A1, “CARDIOVASCULAR COMPOSITIONS AND USE OF THE SAME FOR THE TREATMENT OF ALZHEIMER'S DISEASE” (MOUNT SINAI SCHOOL OF MEDICINE, priority 2006, published 2010).
“Also recorded” adds a separate entry of the source.

Columns and labels:
β-secretase = β-secretase (Mus musculus, UniProt P56818); parameters: dose or concentration left out as unconfirmed; settings: primary Tg2576 neuron cultures, 16 hours
Tg2576 mice = assay: Morris water maze test of spatial memory; type: in vivo, mouse
From the text: In the MWM assay, experimental animals are placed into a circular water tank and provided with a submerged “escape platform” at a specific location. Appropriate visual cues are located on a wall surrounding the water tank. Through repeated “learning trials”, normal animals typically learn to use the visual cues for spatial navigation and eventually require less time to swim to the platform as reflected by reducing escape latency.
Behavioral assessment of cognitive function by the Morris water maze test. […] At ˜11 months of age, mice were put into the water maze from 4 different quadrants; spatial memory was assessed by recording the average latency time for the animal to escape to the hidden platform. The behavior analysis was consistently conducted during the last 4 hours of the day portion of the light cycle in an environment with minimal stimuli (e.g., noise, movement, or changes in light or temperature).

[1] = system: primary cortico-hippocampal neuron cultures; assay: MTT in primary screening

Chain of β-secretase (P56818 46-501): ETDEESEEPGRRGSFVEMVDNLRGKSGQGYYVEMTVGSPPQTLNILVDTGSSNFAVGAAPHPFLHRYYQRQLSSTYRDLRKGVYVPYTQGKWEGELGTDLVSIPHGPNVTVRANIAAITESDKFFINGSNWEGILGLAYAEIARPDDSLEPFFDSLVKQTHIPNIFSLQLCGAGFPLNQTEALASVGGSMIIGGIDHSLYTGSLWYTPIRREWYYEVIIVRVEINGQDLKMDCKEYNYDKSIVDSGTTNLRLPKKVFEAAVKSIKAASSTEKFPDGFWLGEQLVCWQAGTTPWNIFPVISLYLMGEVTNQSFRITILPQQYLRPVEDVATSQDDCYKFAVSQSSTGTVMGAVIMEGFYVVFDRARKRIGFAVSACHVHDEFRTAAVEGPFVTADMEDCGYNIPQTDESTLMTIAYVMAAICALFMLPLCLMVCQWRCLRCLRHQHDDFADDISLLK

In the case of “N-(1-oxopentyl)-N-[[2-(1H-tetrazol-5-yl) [1,1-biphenyl]-4-yl]methyl]-L-valine [Valsartan]”, the β-secretase activity (β-secretase) is reported as “selectively inhibition of β-secretase activity”, the “escape latency in Morris water maze” value (Tg2576 mice; Tg2576 mice, valsartan 10 and 40 mg/kg/day vs untreated) is reported as “significant improvement in escape latency; also recorded: significantly reduced escape latency; also recorded: performed significantly better than untreated mice” and the “spatial memory performance in Morris water maze” value (Tg2576 mice; WT mice, valsartan 10 or 40 mg/kg/day) is reported as “did not significantly influence spatial memory performance; also recorded: failed to influence spatial reference memory performance”. The “MTT (% of ctl)” value ([1]; Primary Screening, table sorted by Aβ1-40) was 67.4 % of ctl and the “MTT (% of ctl)” value ([1]; primary screening, table sorted by Aβ1-42) was 67.4 % of ctl.
